According to US11208412B2 (DAEGU-GYEONGBUK MEDICAL INNOVATION FOUNDATION, priority 2017, dated 2021):

What was measured:
recombinant LRRK2 kinase = molecular target: T1, recombinant LRRK2 kinase (Homo sapiens, UniProt Q5S007); assay: LRRK2 kinase inhibition (Kinase-Glo luminescence); assay type: biochemical; conditions: IC50 grade; 25 μmol/L ATP, LRRKtide, 30° C. 2 hours; read-out: Enzyme activity LRRK2
T1 construct: purchased Signal Chem, Richmond, BC, Canada
Protocol: Upon completion of the reaction, an equal amount of Kinase-Glo (Promega, Madison, Wis.) solution was added thereto, followed by reaction for 40 minutes. A detection solution was added thereto, followed by further reaction at room temperature for 30 minutes. Then, IC50 of kinase was calculated by measuring the amount of luciferase using a microplate ELISA reader (Bio-Tek).

[1] = molecular target: T2, kinases of the scanMAX Kinase assay panel (Homo sapiens, UniProt Q7KZI7); assay: Kinase selectivity, DiscoverX scanMAX Kinase assay panel (% control); assay type: binding; conditions: MARK2; 1 uM
T2 construct: purchased DiscoverX Co. (contract measurement) scanMAX Kinase assay panel
T2 sequence (Q7KZI7 whole entry): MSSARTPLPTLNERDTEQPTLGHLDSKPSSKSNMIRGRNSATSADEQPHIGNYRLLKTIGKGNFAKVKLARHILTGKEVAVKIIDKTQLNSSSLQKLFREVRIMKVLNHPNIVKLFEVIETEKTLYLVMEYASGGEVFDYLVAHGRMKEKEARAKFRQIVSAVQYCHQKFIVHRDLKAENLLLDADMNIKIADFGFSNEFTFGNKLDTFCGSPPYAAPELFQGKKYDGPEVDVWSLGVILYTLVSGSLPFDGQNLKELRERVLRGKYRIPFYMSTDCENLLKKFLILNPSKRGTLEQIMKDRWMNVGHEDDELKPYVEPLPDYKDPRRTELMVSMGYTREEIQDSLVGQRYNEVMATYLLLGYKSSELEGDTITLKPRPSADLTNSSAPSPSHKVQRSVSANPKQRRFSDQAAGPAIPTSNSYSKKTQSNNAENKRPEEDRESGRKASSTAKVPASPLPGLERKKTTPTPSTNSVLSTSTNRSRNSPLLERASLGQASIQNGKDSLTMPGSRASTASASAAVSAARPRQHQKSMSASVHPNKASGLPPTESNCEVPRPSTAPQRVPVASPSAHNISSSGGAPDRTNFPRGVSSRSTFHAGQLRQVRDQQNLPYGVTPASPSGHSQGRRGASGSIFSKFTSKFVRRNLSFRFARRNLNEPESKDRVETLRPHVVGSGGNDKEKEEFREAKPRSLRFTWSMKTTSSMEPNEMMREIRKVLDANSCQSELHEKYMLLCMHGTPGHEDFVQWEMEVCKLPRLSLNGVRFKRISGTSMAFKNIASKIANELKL
Procedure, shortened: (§1)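 Compounds were tested at 1 uM (in DMSO) against each panel kinase. % control was calculated as (compound − positive control)/(negative control − positive control)×100, where the positive control gives 0% and DMSO gives 100%. Activity toward a kinase was called at % control <35%.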

[2] = molecular target: T3, kinases of the scanMAX Kinase assay panel (Homo sapiens, UniProt Q92630); assay: as above; assay type: binding; conditions: DYRK2; 1 uM
T3 construct: purchased DiscoverX Co. (contract measurement) scanMAX Kinase assay panel
T3 sequence (Q92630 1-601): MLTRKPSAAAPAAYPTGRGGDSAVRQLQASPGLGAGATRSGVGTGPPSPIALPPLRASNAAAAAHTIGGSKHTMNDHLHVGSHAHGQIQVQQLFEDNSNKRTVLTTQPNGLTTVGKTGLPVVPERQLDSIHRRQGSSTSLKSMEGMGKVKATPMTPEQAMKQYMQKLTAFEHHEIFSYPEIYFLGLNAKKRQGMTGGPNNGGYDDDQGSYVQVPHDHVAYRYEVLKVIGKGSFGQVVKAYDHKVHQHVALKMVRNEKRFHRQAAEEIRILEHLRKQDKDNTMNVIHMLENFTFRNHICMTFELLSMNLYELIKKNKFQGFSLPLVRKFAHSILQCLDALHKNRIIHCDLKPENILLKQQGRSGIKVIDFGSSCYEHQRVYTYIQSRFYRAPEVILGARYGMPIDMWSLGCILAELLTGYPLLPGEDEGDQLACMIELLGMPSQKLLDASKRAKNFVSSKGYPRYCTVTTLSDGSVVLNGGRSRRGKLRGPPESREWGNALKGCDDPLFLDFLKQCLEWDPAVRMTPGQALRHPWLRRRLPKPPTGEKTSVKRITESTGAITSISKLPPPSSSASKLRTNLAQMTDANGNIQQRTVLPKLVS
Procedure, shortened: as §1

[3] = molecular target: T4, kinases of the scanMAX Kinase assay panel (Homo sapiens, UniProt Q13557); assay: as above; assay type: binding; conditions: CAMK2D; 1 uM
T4 construct: purchased DiscoverX Co. (contract measurement) scanMAX Kinase assay panel
T4 sequence (Q13557 whole entry): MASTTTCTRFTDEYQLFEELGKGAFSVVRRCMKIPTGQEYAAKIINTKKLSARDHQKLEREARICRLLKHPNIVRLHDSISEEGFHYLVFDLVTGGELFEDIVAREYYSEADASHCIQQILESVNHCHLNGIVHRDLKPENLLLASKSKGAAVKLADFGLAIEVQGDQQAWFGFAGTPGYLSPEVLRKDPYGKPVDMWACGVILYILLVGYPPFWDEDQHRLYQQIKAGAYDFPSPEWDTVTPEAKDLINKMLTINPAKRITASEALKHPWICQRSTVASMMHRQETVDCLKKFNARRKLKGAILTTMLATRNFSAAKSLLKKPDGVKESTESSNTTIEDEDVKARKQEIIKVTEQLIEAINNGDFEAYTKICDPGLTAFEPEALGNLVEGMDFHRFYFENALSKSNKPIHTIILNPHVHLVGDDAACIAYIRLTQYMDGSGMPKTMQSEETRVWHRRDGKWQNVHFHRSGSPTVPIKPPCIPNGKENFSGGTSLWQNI
Procedure, shortened: as §1

T1 sequence (Q5S007 whole entry): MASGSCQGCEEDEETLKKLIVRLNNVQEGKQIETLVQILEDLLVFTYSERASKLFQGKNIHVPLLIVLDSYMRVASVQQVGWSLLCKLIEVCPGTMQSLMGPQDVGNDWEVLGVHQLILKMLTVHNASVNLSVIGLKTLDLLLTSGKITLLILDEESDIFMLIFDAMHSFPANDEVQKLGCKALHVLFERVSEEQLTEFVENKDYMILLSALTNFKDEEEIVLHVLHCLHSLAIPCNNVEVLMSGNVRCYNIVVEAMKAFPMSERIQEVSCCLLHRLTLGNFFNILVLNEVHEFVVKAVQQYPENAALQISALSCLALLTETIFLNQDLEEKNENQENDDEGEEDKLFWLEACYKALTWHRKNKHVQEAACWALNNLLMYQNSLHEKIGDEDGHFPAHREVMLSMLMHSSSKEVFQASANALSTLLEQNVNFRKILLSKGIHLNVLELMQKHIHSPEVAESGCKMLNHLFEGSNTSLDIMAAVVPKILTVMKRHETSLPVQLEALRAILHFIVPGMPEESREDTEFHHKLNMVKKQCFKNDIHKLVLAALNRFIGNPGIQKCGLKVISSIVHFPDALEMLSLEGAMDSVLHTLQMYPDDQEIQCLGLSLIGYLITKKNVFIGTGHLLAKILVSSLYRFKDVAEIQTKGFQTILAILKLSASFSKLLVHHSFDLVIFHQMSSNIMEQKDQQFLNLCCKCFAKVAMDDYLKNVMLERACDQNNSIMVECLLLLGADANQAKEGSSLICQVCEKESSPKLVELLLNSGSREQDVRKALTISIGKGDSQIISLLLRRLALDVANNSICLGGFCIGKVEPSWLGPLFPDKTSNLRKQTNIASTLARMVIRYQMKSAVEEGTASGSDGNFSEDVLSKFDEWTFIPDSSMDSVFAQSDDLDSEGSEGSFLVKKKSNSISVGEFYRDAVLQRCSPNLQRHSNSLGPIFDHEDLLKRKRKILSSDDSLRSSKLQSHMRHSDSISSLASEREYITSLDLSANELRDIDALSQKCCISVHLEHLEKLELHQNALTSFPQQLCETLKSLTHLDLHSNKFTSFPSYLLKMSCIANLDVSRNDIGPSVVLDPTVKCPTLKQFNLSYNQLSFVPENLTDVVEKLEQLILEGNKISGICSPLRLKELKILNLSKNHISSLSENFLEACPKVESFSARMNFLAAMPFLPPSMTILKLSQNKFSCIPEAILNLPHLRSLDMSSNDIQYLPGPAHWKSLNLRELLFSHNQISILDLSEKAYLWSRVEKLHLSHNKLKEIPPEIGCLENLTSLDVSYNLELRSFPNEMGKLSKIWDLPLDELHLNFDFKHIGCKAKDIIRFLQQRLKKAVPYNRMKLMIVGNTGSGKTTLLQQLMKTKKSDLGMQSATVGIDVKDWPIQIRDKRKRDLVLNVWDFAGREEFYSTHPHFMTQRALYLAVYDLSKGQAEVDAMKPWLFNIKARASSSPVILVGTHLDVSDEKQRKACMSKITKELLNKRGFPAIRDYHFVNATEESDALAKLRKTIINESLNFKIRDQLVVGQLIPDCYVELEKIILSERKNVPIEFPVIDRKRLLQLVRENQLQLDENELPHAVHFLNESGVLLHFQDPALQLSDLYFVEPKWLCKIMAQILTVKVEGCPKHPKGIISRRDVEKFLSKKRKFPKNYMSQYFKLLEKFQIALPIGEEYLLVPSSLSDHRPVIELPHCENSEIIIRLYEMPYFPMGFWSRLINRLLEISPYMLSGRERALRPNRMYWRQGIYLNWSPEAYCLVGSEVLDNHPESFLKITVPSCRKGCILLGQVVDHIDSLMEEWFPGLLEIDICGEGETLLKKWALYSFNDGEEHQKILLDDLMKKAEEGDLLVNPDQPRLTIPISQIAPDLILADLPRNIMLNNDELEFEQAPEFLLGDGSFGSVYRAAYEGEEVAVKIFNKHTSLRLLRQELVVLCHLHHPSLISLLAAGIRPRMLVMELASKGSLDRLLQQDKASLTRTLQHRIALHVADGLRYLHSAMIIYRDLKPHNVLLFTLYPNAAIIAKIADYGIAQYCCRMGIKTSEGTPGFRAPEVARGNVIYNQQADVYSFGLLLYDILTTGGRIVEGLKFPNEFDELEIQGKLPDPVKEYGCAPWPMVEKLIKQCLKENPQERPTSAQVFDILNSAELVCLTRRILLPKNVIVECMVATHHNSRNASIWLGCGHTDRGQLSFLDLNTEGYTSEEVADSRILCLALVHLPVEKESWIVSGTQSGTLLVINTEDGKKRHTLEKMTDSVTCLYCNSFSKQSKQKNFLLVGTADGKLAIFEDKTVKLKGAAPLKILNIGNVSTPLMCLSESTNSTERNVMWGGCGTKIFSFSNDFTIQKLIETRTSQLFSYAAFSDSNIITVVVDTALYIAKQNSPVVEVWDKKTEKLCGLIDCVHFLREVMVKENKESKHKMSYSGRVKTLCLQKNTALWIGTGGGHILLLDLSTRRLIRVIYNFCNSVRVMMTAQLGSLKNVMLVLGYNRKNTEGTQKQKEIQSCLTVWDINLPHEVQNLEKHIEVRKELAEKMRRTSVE

Structure (SMILES) | IC50 (recombinant LRRK2 kinase) [µM] | remaining binding at 1 µM [1] [%] | remaining binding at 1 µM [2] [%] | remaining binding at 1 µM [3] [%]
CNc1nc(Nc2ccc(C(=O)N3CCOCC3)cc2OC)nc2[nH]cc(C#N)c12 [Example 1, 2-((2-methoxy-4-(morpholine-4-carbonyl)phenyl)amino)-4-(methylamino)-7H-pyrrolo[2,3-d]pyrimidine-5-carbonitrile] | < 0.01 | 100 | 22 | 82
CC1(Nc2nc(Nc3cnn([C@H]4CCN(C5COC5)C[C@@H]4F)c3Cl)nc3[nH]cc(C#N)c23)CC1 [Example 52, 2-((5-chloro-1-((3S,4S)-3-fluoro-1-(oxetane-3-yl)piperidine-4-yl)-1H-pyrazole-4-yl)amino)((1-methylcyclopropyl)amino)-7H-pyrrolo[2,3-d]pyrimidine-5-carbonitrile] | < 0.01 | 9.5 | 0.8 | 65
CCNc1nc(Nc2ccc(C(=O)N3CCC(N4CCOCC4)CC3)cc2OC)nc2[nH]cc(C(F)(F)F)c12 [Example 104, (4-((4-(ethylamino)-5-(trifluoromethyl)-7H-pyrrolo[2,3-d]pyrimidine-2-yl)amino)-3-methoxyphenyl)(4-morpholinopiperidine-1-yl)methanone] | < 0.01 | 81 | 25 | 66
